According to PubChem BioAssay AID248 (DTP/NCI, 2004):
Several values for one entry are separate records, joined by “and”; a condition that tells them apart may be missing. Equal entries are not always repeated. Toxic doses and inconclusive results are not listed. Cut-off read from the data, not from the text of the source: active = T/C of 150% or more; inactive = T/C below 125%.

Tested on: L1210 leukemia ip in BDF1 mice, survival T/C
Experiment: NCI In Vivo Anticancer Drug Screen. Data for tumor model L1210 Leukemia (intraperitoneal) in B6D2F1 (BDF1) mice
Conditions: endpoint: mean survival time, higher = longer survival
Method in brief: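 Tumor cells were implanted, animals were treated, and survival was followed. The result divides the treated measurement by the vehicle-control measurement.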

[1] = dose: 100.0 mg/kg/injection, schedule: Q04DX003 (ip), vehicle: Klucel (hydroxypropylcellulose) (HPC)
[2] = dose: 200.0 mg/kg/injection, schedule: Q04DX003 (ip), vehicle: Klucel (hydroxypropylcellulose) (HPC)
[3] = dose: 400.0 mg/kg/injection, schedule: Q04DX003 (ip), vehicle: Klucel (hydroxypropylcellulose) (HPC)
[4] = dose: 100.0 mg/kg/injection, schedule: Q01DX001 (ip), vehicle: saline
[5] = dose: 200.0 mg/kg/injection, schedule: Q01DX001 (ip), vehicle: saline
[6] = dose: 400.0 mg/kg/injection, schedule: Q01DX001 (ip), vehicle: saline
[7] = dose: 400.0 mg/kg/injection, schedule: Q04DX002 (ip), vehicle: saline with Tween-80
[8] = dose: 100.0 mg/kg/injection, schedule: Q01DX001 (ip), vehicle: Klucel (hydroxypropylcellulose) (HPC)
[9] = dose: 200.0 mg/kg/injection, schedule: Q01DX001 (ip), vehicle: Klucel (hydroxypropylcellulose) (HPC)
[10] = dose: 100.0 mg/kg/injection, schedule: Q01DX009 (ip), vehicle: Klucel (hydroxypropylcellulose) (HPC)
[11] = dose: 200.0 mg/kg/injection, schedule: Q01DX009 (ip), vehicle: Klucel (hydroxypropylcellulose) (HPC)
[12] = dose: 100.0 mg/kg/injection, schedule: Q04DX002 (ip), vehicle: saline with Tween-80
[13] = dose: 200.0 mg/kg/injection, schedule: Q04DX002 (ip), vehicle: saline with Tween-80

Measured: T/C

CCCCCCCCCCCCNc1nnc(Cl)c2ccccc12
inactive: [1] 95 % of control | [2] 97 % of control | [3] 92 % of control

CS(=O)(=O)Cc1ccc([N+](=O)[O-])cc1
inactive: [1] 103 % of control | [2] 109 % of control | [3] 103 % of control

O=c1oc2ccccc2cc1P(=O)(O)O
inactive: dose: 50.0 mg/kg/injection, schedule: Q01DX001 (ip), vehicle: saline 91 % of control | [4] 95 % of control | [5] 95 % of control | [6] 97 % of control

c1ccc(C(c2ccccc2)(c2ccccc2)c2ccc(Nc3ccc(C(c4ccccc4)(c4ccccc4)c4ccccc4)cc3)cc2)cc1
inactive: dose: 25.6 mg/kg/injection, schedule: Q04DX002 (ip), vehicle: saline with Tween-80 87 % of control | dose: 64.0 mg/kg/injection, schedule: Q04DX002 (ip), vehicle: saline with Tween-80 91 % of control | dose: 160.0 mg/kg/injection, schedule: Q04DX002 (ip), vehicle: saline with Tween-80 97 % of control | [7] 97 % of control

CC(C)C(N)C(=O)O (stereo not drawn)
inactive: dose: 50.0 mg/kg/injection, schedule: Q01DX001 (ip), vehicle: Klucel (hydroxypropylcellulose) (HPC) 97 % of control | dose: 75.0 mg/kg/injection, schedule: Q01DX001 (ip), vehicle: acetone 97 % of control | [8] 100 % of control | dose: 100.0 mg/kg/injection, schedule: Q01DX001 (ip), vehicle: carboxymethylcellulose (CMC) 96 % of control | [4] 95 % of control | [1] 98 % of control | dose: 150.0 mg/kg/injection, schedule: Q01DX001 (ip), vehicle: acetone 92 % of control | [9] 99 % of control | dose: 200.0 mg/kg/injection, schedule: Q01DX001 (ip), vehicle: carboxymethylcellulose (CMC) 96 % of control | [5] 100 % of control | [2] 107 % of control | dose: 300.0 mg/kg/injection, schedule: Q01DX001 (ip), vehicle: acetone 94 % of control | dose: 400.0 mg/kg/injection, schedule: Q01DX001 (ip), vehicle: carboxymethylcellulose (CMC) 94 % of control | [6] 92 % of control | [3] 100 % of control

CC(C)OP(=O)(NC12CC3CC(CC(C3)C1)C2)OC(C)C
inactive: [10] 103 % of control | [1] 95 % of control | [11] 100 % of control | [2] 96 % of control | dose: 400.0 mg/kg/injection, schedule: Q01DX009 (ip), vehicle: Klucel (hydroxypropylcellulose) (HPC) 90 % of control | [3] 100 % of control

COc1cc(C(O)C(Cl)(Cl)Cl)ccc1O (stereo not drawn)
inactive: dose: 100.0 mg/kg/injection, schedule: Q04DX003 (ip), vehicle: other 105 % of control | dose: 200.0 mg/kg/injection, schedule: Q04DX003 (ip), vehicle: other 105 % of control | dose: 400.0 mg/kg/injection, schedule: Q04DX003 (ip), vehicle: other 102 % of control

O=C1c2ccccc2-c2ccc(Br)c3cccc1c23
inactive: dose: 50.0 mg/kg/injection, schedule: Q01DX009 (ip), vehicle: Klucel (hydroxypropylcellulose) (HPC) 93 % of control | dose: 50.0 mg/kg/injection, schedule: Q04DX003 (ip), vehicle: Klucel (hydroxypropylcellulose) (HPC) 100 % of control | [10] 91 % of control | [1] 95 % of control | [11] 91 % of control | [2] 100 % of control

Ic1ccc([I+]c2ccc(I)cc2)cc1
inactive: dose: 100.0 mg/kg/injection, schedule: Q04DX002 (ip), vehicle: Klucel (hydroxypropylcellulose) (HPC) 106 % of control | dose: 200.0 mg/kg/injection, schedule: Q04DX002 (ip), vehicle: Klucel (hydroxypropylcellulose) (HPC) 106 % of control | dose: 400.0 mg/kg/injection, schedule: Q04DX002 (ip), vehicle: Klucel (hydroxypropylcellulose) (HPC) 106 % of control

CCCCCCC(CCC)CCCCCC
inactive: [12] 98 % of control | [13] 104 % of control | [7] 98 % of control

O=C1CCc2ccccc2/C1=C\c1ccccc1
inactive: dose: 100.0 mg/kg/injection, schedule: Q04DX003 (ip), vehicle: saline with Tween-80 98 % of control | dose: 200.0 mg/kg/injection, schedule: Q04DX003 (ip), vehicle: saline with Tween-80 97 % of control | dose: 400.0 mg/kg/injection, schedule: Q04DX003 (ip), vehicle: saline with Tween-80 92 % of control

Cc1ccc(-n2c(=S)[nH]c3ccccc3c2=O)cc1
inactive: dose: 25.0 mg/kg/injection, schedule: Q01DX009 (ip), vehicle: saline with Tween-80 92 % of control | dose: 50.0 mg/kg/injection, schedule: Q01DX009 (ip), vehicle: saline with Tween-80 90 % of control | dose: 100.0 mg/kg/injection, schedule: Q01DX009 (ip), vehicle: saline with Tween-80 87 % of control

CN1CCCC1c1cccc([N+](=O)[O-])c1 (stereo not drawn)
inactive: dose: 100.0 mg/kg/injection, schedule: Q01DX001 (ip), vehicle: acetone 93 % of control

FC(F)(F)c1cc(Cl)ccc1Cl
inactive: dose: 80.0 mg/kg/injection, schedule: Q01DX009 (ip), vehicle: Klucel (hydroxypropylcellulose) (HPC) 100 % of control | [1] 101 % of control and 106 % of control | dose: 160.0 mg/kg/injection, schedule: Q01DX009 (ip), vehicle: Klucel (hydroxypropylcellulose) (HPC) 102 % of control | [2] 92 % of control and 104 % of control | dose: 320.0 mg/kg/injection, schedule: Q01DX009 (ip), vehicle: Klucel (hydroxypropylcellulose) (HPC) 111 % of control | [3] 99 % of control and 102 % of control

CC(C)CNC(=O)CCCc1ccc(N(CCCl)CCCl)cc1
inactive: dose: 4.0 mg/kg/injection, schedule: Q12HX018 (ip), vehicle: other 110 % of control | dose: 6.0 mg/kg/injection, schedule: Q12HX018 (ip), vehicle: other 95 % of control | dose: 8.0 mg/kg/injection, schedule: Q12HX018 (ip), vehicle: other 112 % of control

CN(C)/C=C1\CCOC1=O
inactive: dose: 100.0 mg/kg/injection, schedule: Q04DX002 (ip), vehicle: saline 101 % of control | dose: 200.0 mg/kg/injection, schedule: Q04DX002 (ip), vehicle: saline 119 % of control

O=C(O)c1ccc(CCl)cc1
inactive: [12] 108 % of control | [13] 105 % of control

C=CCNC(=S)N(CCC#N)C1CCCCC1
inactive: [12] 101 % of control | [13] 90 % of control | [7] 93 % of control

COc1ccc(/C=C2\SC(=S)NC2=O)cc1OC
inactive: dose: 100.0 mg/kg/injection, schedule: Q01DX009 (ip), vehicle: saline sonified 96 % of control | [1] 98 % of control | dose: 200.0 mg/kg/injection, schedule: Q01DX009 (ip), vehicle: saline sonified 108 % of control | [2] 96 % of control | dose: 400.0 mg/kg/injection, schedule: Q01DX009 (ip), vehicle: saline sonified 94 % of control | [3] 96 % of control

N=C(N)SCCC(=O)O
inactive: dose: 100.0 mg/kg/injection, schedule: Q01DX009 (ip), vehicle: saline 100 % of control | dose: 100.0 mg/kg/injection, schedule: Q04DX003 (ip), vehicle: saline 90 % of control | dose: 200.0 mg/kg/injection, schedule: Q01DX009 (ip), vehicle: saline 110 % of control | dose: 200.0 mg/kg/injection, schedule: Q04DX003 (ip), vehicle: saline 96 % of control | dose: 400.0 mg/kg/injection, schedule: Q01DX009 (ip), vehicle: saline 115 % of control | dose: 400.0 mg/kg/injection, schedule: Q04DX003 (ip), vehicle: saline 95 % of control

C/C=C/SC(=Nc1ccccc1)Nc1ccccc1
inactive: [8] 96 % of control | [9] 94 % of control | dose: 400.0 mg/kg/injection, schedule: Q01DX001 (ip), vehicle: Klucel (hydroxypropylcellulose) (HPC) 98 % of control
